From patent US12568972B2, “Pyridazinol compounds and derivatives, preparation methods, herbicidal compositions and applications thereof” (Qingdao Kingagroot Chemical Compound Co., Ltd., priority 2018, dated 2026)

Legend:
Assay in all cases: Post-emergence test, weed control effect
Format in all cases: in vivo
Settings in all cases: Dose 3000 g/ha, after 3 weeks
Amaranthus retroflexus = tested on: Amaranthus retroflexus
In short: (§1)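 Score 0-10 (10 = completely dead, 1 = below 20%, 0 = no effect) from fresh-weight growth inhibition, read 3 weeks after a post-emergence spray. Greenhouse pot plants at 2-3 leaves; spray solution acetone/Tween-80/water with 80% vegetable oil methyl ester synergist at 1500 g/ha.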

Chenopodiaceae = tested on: Chenopodiaceae
In short: as §1

Rorippa indica = tested on: Rorippa indica
In short: as §1

Veronica polita = tested on: Veronica polita
In short: as §1

CCOC(=S)Oc1cc(C(F)(F)F)nnc1-c1ccc(C)cc1 [Compound 1-155]
10: weed control effect, Amaranthus retroflexus (activity level) (Amaranthus retroflexus) | weed control effect, Chenopodiaceae (activity level) (Chenopodiaceae) | weed control effect, Rorippa indica (activity level) (Rorippa indica) | weed control effect, Veronica polita (activity level) (Veronica polita)

CCCOC(=S)Oc1cc(C(F)(F)F)nnc1-c1ccc(OC)cc1 [Compound 1-156]
10: weed control effect, Amaranthus retroflexus (activity level) (Amaranthus retroflexus) | weed control effect, Chenopodiaceae (activity level) (Chenopodiaceae) | weed control effect, Rorippa indica (activity level) (Rorippa indica) | weed control effect, Veronica polita (activity level) (Veronica polita)

CCCCOC(=S)Oc1cc(C(F)(F)F)nnc1-c1ccc(F)c(F)c1 [Compound 1-157]
10: weed control effect, Amaranthus retroflexus (activity level) (Amaranthus retroflexus) | weed control effect, Chenopodiaceae (activity level) (Chenopodiaceae) | weed control effect, Rorippa indica (activity level) (Rorippa indica) | weed control effect, Veronica polita (activity level) (Veronica polita)

CC(C)COC(=S)Oc1cc(C(F)(F)F)nnc1-c1ccc(Cl)cc1Cl [Compound 1-158]
10: weed control effect, Amaranthus retroflexus (activity level) (Amaranthus retroflexus) | weed control effect, Chenopodiaceae (activity level) (Chenopodiaceae) | weed control effect, Rorippa indica (activity level) (Rorippa indica) | weed control effect, Veronica polita (activity level) (Veronica polita)

Cc1ccc(-c2nnc(C(F)(F)F)cc2OC(=S)OCCC(C)C)c([N+](=O)[O-])c1 [Compound 1-159]
10: weed control effect, Amaranthus retroflexus (activity level) (Amaranthus retroflexus) | weed control effect, Chenopodiaceae (activity level) (Chenopodiaceae) | weed control effect, Rorippa indica (activity level) (Rorippa indica) | weed control effect, Veronica polita (activity level) (Veronica polita)

CCCCCCOC(=S)Oc1cc(C(F)(F)F)nnc1-c1ccc(Cl)c(Cl)c1Cl [Compound 1-160]
10: weed control effect, Amaranthus retroflexus (activity level) (Amaranthus retroflexus) | weed control effect, Chenopodiaceae (activity level) (Chenopodiaceae) | weed control effect, Rorippa indica (activity level) (Rorippa indica) | weed control effect, Veronica polita (activity level) (Veronica polita)

CCN(CC)C(=S)Oc1cc(C(F)(F)F)nnc1-c1ccc(F)cc1 [Compound 1-162]
10: weed control effect, Amaranthus retroflexus (activity level) (Amaranthus retroflexus) | weed control effect, Chenopodiaceae (activity level) (Chenopodiaceae) | weed control effect, Rorippa indica (activity level) (Rorippa indica) | weed control effect, Veronica polita (activity level) (Veronica polita)

CCCCCCCCSC(=S)Oc1cc(C(F)(F)F)nnc1-c1ccc(F)c(F)c1 [Compound 1-163]
10: weed control effect, Amaranthus retroflexus (activity level) (Amaranthus retroflexus) | weed control effect, Chenopodiaceae (activity level) (Chenopodiaceae) | weed control effect, Rorippa indica (activity level) (Rorippa indica) | weed control effect, Veronica polita (activity level) (Veronica polita)

O=C(Oc1cc(C(F)(F)F)nnc1-c1ccc(F)cc1)Sc1ccccc1 [Compound 1-164]
10: weed control effect, Amaranthus retroflexus (activity level) (Amaranthus retroflexus) | weed control effect, Chenopodiaceae (activity level) (Chenopodiaceae) | weed control effect, Rorippa indica (activity level) (Rorippa indica) | weed control effect, Veronica polita (activity level) (Veronica polita)

CCS(=O)Oc1cc(C(F)(F)F)nnc1-c1ccc(F)c(F)c1 (centres unmarked) [Compound 1-165]
10: weed control effect, Amaranthus retroflexus (activity level) (Amaranthus retroflexus) | weed control effect, Chenopodiaceae (activity level) (Chenopodiaceae) | weed control effect, Rorippa indica (activity level) (Rorippa indica) | weed control effect, Veronica polita (activity level) (Veronica polita)

O=S(Oc1cc(C(F)(F)F)nnc1-c1ccc(F)cc1)C(F)(F)F (centres unmarked) [Compound 1-166]
10: weed control effect, Amaranthus retroflexus (activity level) (Amaranthus retroflexus) | weed control effect, Chenopodiaceae (activity level) (Chenopodiaceae) | weed control effect, Rorippa indica (activity level) (Rorippa indica) | weed control effect, Veronica polita (activity level) (Veronica polita)

COP(=O)(OC)Oc1cc(C(F)(F)F)nnc1-c1ccc(F)c(Cl)c1 [Compound 1-167]
10: weed control effect, Amaranthus retroflexus (activity level) (Amaranthus retroflexus) | weed control effect, Chenopodiaceae (activity level) (Chenopodiaceae) | weed control effect, Rorippa indica (activity level) (Rorippa indica) | weed control effect, Veronica polita (activity level) (Veronica polita)

CC(C)=NOc1cc(C(F)(F)F)nnc1-c1ccc(F)c(F)c1 [Compound 1-169]
10: weed control effect, Amaranthus retroflexus (activity level) (Amaranthus retroflexus) | weed control effect, Chenopodiaceae (activity level) (Chenopodiaceae) | weed control effect, Rorippa indica (activity level) (Rorippa indica) | weed control effect, Veronica polita (activity level) (Veronica polita)

CC/C(C)=N\Oc1cc(C(F)(F)F)nnc1-c1ccc(C)cc1 [Compound 1-170]
10: weed control effect, Amaranthus retroflexus (activity level) (Amaranthus retroflexus) | weed control effect, Chenopodiaceae (activity level) (Chenopodiaceae) | weed control effect, Rorippa indica (activity level) (Rorippa indica) | weed control effect, Veronica polita (activity level) (Veronica polita)

CCC/C(C)=N\Oc1cc(C(F)(F)F)nnc1-c1ccc(OC)cc1 [Compound 1-171]
10: weed control effect, Amaranthus retroflexus (activity level) (Amaranthus retroflexus) | weed control effect, Chenopodiaceae (activity level) (Chenopodiaceae) | weed control effect, Rorippa indica (activity level) (Rorippa indica) | weed control effect, Veronica polita (activity level) (Veronica polita)

CCC/C=N\Oc1cc(C(F)(F)F)nnc1-c1ccc(F)cc1 [Compound 1-172]
10: weed control effect, Amaranthus retroflexus (activity level) (Amaranthus retroflexus) | weed control effect, Chenopodiaceae (activity level) (Chenopodiaceae) | weed control effect, Rorippa indica (activity level) (Rorippa indica) | weed control effect, Veronica polita (activity level) (Veronica polita)

C/C(CC(C)C)=N/Oc1cc(C(F)(F)F)nnc1-c1cccc(C(F)(F)F)c1 [Compound 1-173]
10: weed control effect, Amaranthus retroflexus (activity level) (Amaranthus retroflexus) | weed control effect, Chenopodiaceae (activity level) (Chenopodiaceae) | weed control effect, Rorippa indica (activity level) (Rorippa indica) | weed control effect, Veronica polita (activity level) (Veronica polita)

C/C(=N/Oc1cc(C(F)(F)F)nnc1-c1ccc(C)c(C)c1)C(C)(C)C [Compound 1-174]
10: weed control effect, Amaranthus retroflexus (activity level) (Amaranthus retroflexus) | weed control effect, Chenopodiaceae (activity level) (Chenopodiaceae) | weed control effect, Rorippa indica (activity level) (Rorippa indica) | weed control effect, Veronica polita (activity level) (Veronica polita)

CCCC/C(C)=N\Oc1cc(C(F)(F)F)nnc1-c1ccc(S(C)(=O)=O)cc1 [Compound 1-175]
10: weed control effect, Amaranthus retroflexus (activity level) (Amaranthus retroflexus) | weed control effect, Chenopodiaceae (activity level) (Chenopodiaceae) | weed control effect, Rorippa indica (activity level) (Rorippa indica) | weed control effect, Veronica polita (activity level) (Veronica polita)

CCCCCC/C(C)=N\Oc1cc(C(F)(F)F)nnc1-c1ccc(Cl)cc1Cl [Compound 1-176]
10: weed control effect, Amaranthus retroflexus (activity level) (Amaranthus retroflexus) | weed control effect, Chenopodiaceae (activity level) (Chenopodiaceae) | weed control effect, Rorippa indica (activity level) (Rorippa indica) | weed control effect, Veronica polita (activity level) (Veronica polita)

CCCCC(CCCC)=NOc1cc(C(F)(F)F)nnc1-c1cccc([N+](=O)[O-])c1 [Compound 1-178]
10: weed control effect, Amaranthus retroflexus (activity level) (Amaranthus retroflexus) | weed control effect, Chenopodiaceae (activity level) (Chenopodiaceae) | weed control effect, Rorippa indica (activity level) (Rorippa indica) | weed control effect, Veronica polita (activity level) (Veronica polita)

CC/C(CC(C)CC)=N/Oc1cc(C(F)(F)F)nnc1-c1ccnn1C (centres unmarked) [Compound 1-179]
10: weed control effect, Amaranthus retroflexus (activity level) (Amaranthus retroflexus) | weed control effect, Chenopodiaceae (activity level) (Chenopodiaceae) | weed control effect, Rorippa indica (activity level) (Rorippa indica) | weed control effect, Veronica polita (activity level) (Veronica polita)

CC(C)CC(CC(C)C)=NOc1cc(C(F)(F)F)nnc1-c1ccc(Cl)cc1 [Compound 1-180]
10: weed control effect, Amaranthus retroflexus (activity level) (Amaranthus retroflexus) | weed control effect, Chenopodiaceae (activity level) (Chenopodiaceae) | weed control effect, Rorippa indica (activity level) (Rorippa indica) | weed control effect, Veronica polita (activity level) (Veronica polita)

CCCC(C)CC/C(C)=N\Oc1cc(C(F)(F)F)nnc1-c1ccccc1 (centres unmarked) [Compound 1-181]
10: weed control effect, Amaranthus retroflexus (activity level) (Amaranthus retroflexus) | weed control effect, Chenopodiaceae (activity level) (Chenopodiaceae) | weed control effect, Rorippa indica (activity level) (Rorippa indica) | weed control effect, Veronica polita (activity level) (Veronica polita)

CCOC(=O)CCCOc1cc(C(F)(F)F)nnc1-c1ccc(F)cc1 [Compound 1-207]
10: weed control effect, Amaranthus retroflexus (activity level) (Amaranthus retroflexus) | weed control effect, Chenopodiaceae (activity level) (Chenopodiaceae) | weed control effect, Rorippa indica (activity level) (Rorippa indica) | weed control effect, Veronica polita (activity level) (Veronica polita)

Fc1ccc(-c2nnc(C(F)(F)F)cc2Oc2ccccc2)cc1F [Compound 1-208]
10: weed control effect, Amaranthus retroflexus (activity level) (Amaranthus retroflexus) | weed control effect, Chenopodiaceae (activity level) (Chenopodiaceae) | weed control effect, Rorippa indica (activity level) (Rorippa indica) | weed control effect, Veronica polita (activity level) (Veronica polita)

Fc1ccc(-c2nnc(C(F)(F)F)cc2OCc2ccccc2)cc1 [Compound 1-209]
10: weed control effect, Amaranthus retroflexus (activity level) (Amaranthus retroflexus) | weed control effect, Chenopodiaceae (activity level) (Chenopodiaceae) | weed control effect, Rorippa indica (activity level) (Rorippa indica) | weed control effect, Veronica polita (activity level) (Veronica polita)

Fc1ccc(-c2nnc(C(F)(F)F)cc2OCc2ccccc2)cc1F [Compound 1-210]
10: weed control effect, Amaranthus retroflexus (activity level) (Amaranthus retroflexus) | weed control effect, Chenopodiaceae (activity level) (Chenopodiaceae) | weed control effect, Rorippa indica (activity level) (Rorippa indica) | weed control effect, Veronica polita (activity level) (Veronica polita)

COc1cc(Cl)c(COc2cc(C(F)(F)F)nnc2-c2ccc(F)cc2)cc1Cl [Compound 1-211]
10: weed control effect, Amaranthus retroflexus (activity level) (Amaranthus retroflexus) | weed control effect, Chenopodiaceae (activity level) (Chenopodiaceae) | weed control effect, Rorippa indica (activity level) (Rorippa indica) | weed control effect, Veronica polita (activity level) (Veronica polita)
